This note sets out measurements from patent US20030100550A1, “Carboxamide diazepin derivatives, preparation method, use as medicines, pharmaceutical compositions and use thereof” (priority 2002, published 2003).

Each structure is given as a SMILES string.

Common to all, as to format: biochemical
The target in experiment [1] is T1, Cathepsin B (Homo sapiens, UniProt P07858).
T1 construct: purchased Calbiochem
Briefly: Study of Cathepsin B inhibition (fluorescence, Z-arg-arg-AMC). Conditions: for IC50: substrate Z-arg-arg-AMC 20 μM, enzyme 16 ng/ml, 1 hour at ambient temperature. The essentials: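 Cathepsin B (16 ng/ml final) with 20 μM Z-Arg-Arg-AMC in 100 mM sodium acetate, 5 mM EDTA, DTT, pH 5.5, incubated 1 h at ambient temperature; fluorescence at ex 390/em 460 nm. Compounds screened at 10 μM, % inhibition against plate 0/100% controls; actives retested 50 to 0.5 μM for IC50.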

Experiment [2] deals with T2, Cathepsin K (Homo sapiens, UniProt P43235).
T2 sequence (P43235 115-329): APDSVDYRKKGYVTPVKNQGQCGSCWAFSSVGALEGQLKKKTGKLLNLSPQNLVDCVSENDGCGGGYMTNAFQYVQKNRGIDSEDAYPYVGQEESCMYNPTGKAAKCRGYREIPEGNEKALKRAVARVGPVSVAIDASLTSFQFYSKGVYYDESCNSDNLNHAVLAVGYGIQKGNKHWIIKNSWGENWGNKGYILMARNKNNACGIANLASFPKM
Kind of experiment: Study of Cathepsin K inhibition (fluorescence, Z-Val-arg-AMC). Conditions: substrate Z-Val-arg-AMC 20 μM, enzyme 5 ng/ml, 2H at ambient temperature; read-out: Cathepsin K IC50. The essentials:
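Recombinant cathepsin K (5 ng/ml final) with 20 μM Z-Val-Arg-AMC in 100 mM sodium acetate, 5 mM EDTA, DTT, pH 5.5; compounds screened at 10 μM in duplicate, 2 h at ambient temperature, fluorescence ex 390/em 460 nm. % inhibition vs plate 0/100% controls; actives retested 50–0.5 μM for IC50.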

In experiment [3] the target is T3, Papain (Carica papaya, UniProt P00784).
T3 construct: purchased Sigma
T3 sequence (P00784 134-345): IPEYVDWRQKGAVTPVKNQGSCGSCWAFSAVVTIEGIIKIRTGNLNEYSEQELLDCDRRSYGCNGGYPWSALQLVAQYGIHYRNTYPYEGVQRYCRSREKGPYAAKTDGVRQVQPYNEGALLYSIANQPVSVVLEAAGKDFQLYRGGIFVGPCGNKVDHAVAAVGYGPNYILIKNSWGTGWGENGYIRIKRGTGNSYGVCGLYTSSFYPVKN
Briefly: Study of Papain inhibition (fluorescence). The conditions noted are these: for Papain, percentage in parentheses beside IC50 value (% inhibition): printed beside 20 μM, meaning not explained; for IC50: enzyme 20 ng/ml, 30 minutes at ambient temperature. The protocol: The products to be tested (10 mM) are diluted to […] in DMSO and distributed into Nunc polystyrene 96 well plates at a rate of 2 μl per well. Column 12 of the plate is reserved for the controls and therefore receives […] of DMSO (without products) per well. The plates are stored at −80° C. and thawed on the day of the experiment.
The products are diluted to 50 μM by adding 38 μl of reaction buffer: sodium acetate 100 mM, EDTA 5 mM, DTT […] pH 5.5. The addition as well as all the operations by pipette are carried out with a CybiWell 96 tip pipette. After mixing the solutions, each product is transferred into 2 wells (duplicates) of a Greiner black 384 well plate at a rate of 10 μl per well. Two 96-well plates can therefore be tested in a 384-well plate.
A solution of substrate at 50 μM, Z-Val-arg-AMC (Calbiochem), is prepared in the reaction buffer. The substrate, is then distributed into all the wells of the 384-well plate (20 μl per well).
A solution of Cathepsin K at 12.5 ng/ml is prepared in the reaction buffer and distributed into all the wells of the 384-well plate (20 μl per well) except for the 16 wells serving as 100% inhibition controls (column 23 and 24, lines I to P) which receive 20 μl of enzyme-free buffer.
The plates are then incubated 2H at ambient temperature, then read on Fluoroskan (Labsystems): excitation 390 nm; emission 460 nm
The final concentrations of each of the reagents are: products 10 μM, substrate 20 μM, enzyme 5 ng/ml.
The % inhibition for each of the products is calculated by using points at 0 and 100% inhibition of each plate as references. The products presenting a significant inhibition are then retested on a range of concentrations from 50 to 0.5 μM to determine an IC50.
Study of Papain Inhibition:
Protocol identical to that of Cathepsin K except for:
Papain (Sigma), solution at 50 ng/ml, final concentration 20 ng/ml
Incubation for 30 minutes at ambient temperature

As to `C=CCOC(=O)CC[C@H](NC(=O)[C@@H]1CCCN2C(=O)CCC[C@H](NC(=O)NC3CCCCC3)C(=O)N12)C(=O)COC(=O)c1c(Cl)cccc1Cl` [Example 122, (2-propenyl)(4S)6-[(2,6-dichlorobenzoyl)oxy]-4-[[[(1S,9S)-9-[[(cyclohexylamino)carbonyl]amino]-octahydro-6,10-dioxo-o-6H-pyridazino[1,2-a][1,2]diazepine-1-yl]carbonyl]amino]-5-oxo-hexanoate], the IC50 (commonly the concentration that gives 50% inhibition) is 0.7 µM in experiment [1] and 18 µM in experiment [2]. In experiment [3], the “Papain, percentage in parentheses beside IC50 value (% inhibition)” value came out at 45%.

`C=CCOC(=O)CC[C@H](NC(=O)[C@@H]1CCCN2C(=O)CC[C@H](NC(=O)Nc3ccc(Oc4ccccc4)cc3)C(=O)N12)C(=O)COC(=O)c1c(Cl)cccc1Cl` [Example 132, (2-propenyl)(4S)6-[(2,6-dichlorobenzoyl)oxy]-4-[[[(1S,9S)-9-[[[(4-phenoxyphenyl)amino]carbonyl]amino]-octahydro-6,10-dioxo-6H-pyridazino[1,2-a][1,2]diazepine-1-yl]carbonyl]amino]-5-oxo-hexanoate]: the IC50 is 2 µM in experiment [1], 20 µM in experiment [2] and 6 µM in experiment [3].

With `C[C@H](NC(=O)[C@@H]1CCCN2C(=O)CC[C@H](NC(=O)NCCc3cccs3)C(=O)N12)C(=O)C=[N+]=[N-]` [Example 172, 9-[(9S)-[[[3-(thien-2-yl)-ethyl]amino]carbonyl]amino]-N-((2S)-4-diazo-3-oxo-2-butyl)-octahydro-6,10-dioxo-6H-(1S)-pyridazino[1,2-a][1,2]diazepine-1-carboxamide], the “Cathepsin B, percentage in parentheses beside IC50 value (% inhibition)” value in experiment [1] (printed beside 20 μM, meaning not explained) was 20 (20%). Further, in experiment [2], the IC50 came to 20 µM. In addition, in experiment [3], the “Papain, percentage in parentheses beside IC50 value (% inhibition)” value is recorded as 10%.

On to `O=C(NCCc1cccs1)N[C@H]1CCC(=O)N2CCC[C@@H](C(=O)N[C@@H](Cc3ccccc3)C(=O)COC(=O)c3c(Cl)cccc3Cl)N2C1=O` [Example 224, 9-[(9S)-[[[2-(thien-2-yl)-ethyl]amino]carbonyl]amino]-N-[(2S)-1-phenyl-4-[(-2,6-dichlorobenzoyl)oxy]-3-oxo-2-butyl]-octahydro-6,10-dioxo-6H-(1S)-pyridazino[1,2-a][1,2]diazepine-1-carboxamide], for which the results for the IC50 in experiment [1], in experiment [2] and in experiment [3] were 9 µM, 20 µM and 8 µM, respectively.

Turning to `CC(C)[C@H](NC(=O)[C@@H]1CCCN2C(=O)CC[C@H](NC(=O)Nc3ccc(Oc4ccccc4)cc3)C(=O)N12)C(=O)CSc1nc2ccccc2s1` [Example 390], the values for the IC50 in experiment [1], in experiment [2] and in experiment [3] were 19 µM, 20 µM and 6 µM, respectively.
